Measured values: the supplement of paper PMC12669032

Assays:
Test in all cases: growth AUC relative to DMSO control (fraction); higher = more growth (less inhibition)
Details in all cases: 24 h
Bacteroides uniformis = tested on: Bacteroides uniformis
Description: (§1)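 Validation screen: 11 independently purchased pesticides tested on 8 gut bacterial strains at 2.5–320 µM in mGAM, anaerobic, 37 °C, 24 h. Growth AUC normalised to DMSO controls, mean of 3 independent experiments.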

Streptococcus salivarius = tested on: Streptococcus salivarius
Description: as §1

[1] = tested on: Parabacteroides distasonis
Description: as §1

Lactobacillus gasseri = tested on: Lactobacillus gasseri
Description: as §1

Eubacterium rectale = tested on: Eubacterium rectale
Description: as §1

Roseburia intestinalis = tested on: Roseburia intestinalis
Description: as §1

Escherichia coli IAI1 = tested on: Escherichia coli IAI1
Description: as §1

Clostridium difficile = tested on: Clostridium difficile
Description: as §1

CC[C@H](C)[C@H]1O[C@]2(C=C[C@@H]1C)C[C@@H]1C[C@@H](C/C=C(\C)[C@@H](O[C@H]3C[C@H](OC)[C@@H](O[C@H]4C[C@H](OC)[C@@H](NC)[C@H](C)O4)[C@H](C)O3)[C@@H](C)/C=C/C=C3\CO[C@@H]4[C@H](O)C(C)=C[C@@H](C(=O)O1)[C@]34O)O2.O=C(O)c1ccccc1 [EMAMECTIN BENZOATE]
growth AUC
Details | Bacteroides uniformis | Clostridium difficile | Escherichia coli IAI1 | Eubacterium rectale | Lactobacillus gasseri | Roseburia intestinalis | Streptococcus salivarius | [1]
2.5 µM | 1.03 | 1.01 | 1.06 | 1.03 | 1.01 | 0.859 | 1.08 | 1.09
5 µM | 1.04 | 0.987 | 1.02 | 1.04 | 1.01 | 0.396 | 1 | 0.898
10 µM | 0.992 | 0.916 | 1 | 0.693 | 0.949 | 0.0369 | 1.02 | 0.487
20 µM | 1.03 | 0.967 | 0.979 | 0.0185 | 0.822 | 0.0348 | 0.938 | 0.0163
40 µM | 0.839 | 0.654 | 1.05 | 0.0159 | 0.848 | 0.0127 | 1.14 | 0.00619
80 µM | 0.669 | 0.0139 | 1.04 | 0.0289 | 1.02 | 0.00913 | 1.16 | 0.0234
160 µM | 0.732 | 0.0469 | 1.06 | 0.126 | 1.07 | 0.0441 | 1.27 | 0.0419

N#Cc1c(Cl)c(Cl)c(Cl)c(C#N)c1Cl [CHLOROTHALONIL]
growth AUC
Details | Bacteroides uniformis | Clostridium difficile | Escherichia coli IAI1 | Eubacterium rectale | Lactobacillus gasseri | Roseburia intestinalis | Streptococcus salivarius | [1]
2.5 µM | 1.04 | 1.03 | 1.02 | 1.07 | 1.02 | 0.978 | 1.08 | 1.13
5 µM | 1.01 | 1.01 | 0.986 | 0.894 | 1.03 | 1.01 | 0.963 | 1.04
10 µM | 0.981 | 0.963 | 1.01 | 0.836 | 1 | 0.91 | 1 | 0.921
20 µM | 0.889 | 0.993 | 0.974 | 0.593 | 0.925 | 0.713 | 0.907 | 0.961

CCCN(CCOc1c(Cl)cc(Cl)cc1Cl)C(=O)n1ccnc1 [PROCHLORAZ]
growth AUC
Details | Bacteroides uniformis | Clostridium difficile | Escherichia coli IAI1 | Eubacterium rectale | Lactobacillus gasseri | Roseburia intestinalis | Streptococcus salivarius | [1]
2.5 µM | 1 | 0.989 | 1 | 0.748 | 1.01 | 0.993 | 1.01 | 0.957
5 µM | 0.994 | 0.977 | 0.987 | 0.524 | 1 | 1.02 | 0.995 | 0.858
10 µM | 0.938 | 0.956 | 0.966 | 0.397 | 0.944 | 0.949 | 0.973 | 0.68
20 µM | 0.92 | 1.01 | 0.956 | 0.125 | 0.931 | 0.718 | 0.945 | 0.608
40 µM | 0.886 | 0.875 | 0.988 | 0.0225 | 0.957 | 0.594 | 0.984 | 0.363
80 µM | 0.812 | 0.913 | 0.989 | 0.0308 | 0.903 | 0.0292 | 0.962 | 0.0195
160 µM | 0.767 | 0.391 | 0.983 | 0.0176 | 0.836 | 0.0197 | 0.935 | 0.0246
